Experimental data from ChEMBL document CHEMBL1201862, “PubChem BioAssay data set” (2004).
Calls of active or inactive are those of the source.

Assays:
NADPH oxidase 1 = NADPH oxidase 1 (Homo sapiens, UniProt Q9Y5S8); assay: Late-stage luminescence-based cell-based dose response assay to identify inhibitors of NADPH oxidase 1 (NOX1): Synthesized analogs.; format: functional
[1] = molecular target: 5-hydroxytryptamine receptor 1A (Homo sapiens, UniProt P08908); format: functional
[2] = HepG2 cell cytotoxicity, dose response, cytotoxicity control, cherry-picked samples (AID 1159577); format: functional, cell-based
[3] = P. falciparum Dd2 growth inhibitors, dose response, SYBR Green, cherry-picked samples (AID 1159567); format: functional, cell-based
Procathepsin L = Procathepsin L (Homo sapiens, UniProt P07711); assay: cathepsin L inhibitors, dose response, counter-screen for M1/M17 aminopeptidase inhibitor project, biochemical, QFRET, 1536-well (AID 2214)
Aspartyl aminopeptidase = molecular target: T1, Aspartyl aminopeptidase (Plasmodium falciparum 3D7, UniProt Q8I2J3); assay: Counterscreen for inhibitors of M1 and M17 aminopeptidases: QFRET-based biochemical high throughput dose response assay for inhibitors of the Plasmodium falciparum M18 Aspartyl Aminopeptidase (PFM18AAP). [Related PubChem assays: 1619 (Screening assay (M17LAP inhibitors).), 1445 (Screening assay (M1AAP inhibitors).)]
T1 sequence (Q8I2J3 whole entry): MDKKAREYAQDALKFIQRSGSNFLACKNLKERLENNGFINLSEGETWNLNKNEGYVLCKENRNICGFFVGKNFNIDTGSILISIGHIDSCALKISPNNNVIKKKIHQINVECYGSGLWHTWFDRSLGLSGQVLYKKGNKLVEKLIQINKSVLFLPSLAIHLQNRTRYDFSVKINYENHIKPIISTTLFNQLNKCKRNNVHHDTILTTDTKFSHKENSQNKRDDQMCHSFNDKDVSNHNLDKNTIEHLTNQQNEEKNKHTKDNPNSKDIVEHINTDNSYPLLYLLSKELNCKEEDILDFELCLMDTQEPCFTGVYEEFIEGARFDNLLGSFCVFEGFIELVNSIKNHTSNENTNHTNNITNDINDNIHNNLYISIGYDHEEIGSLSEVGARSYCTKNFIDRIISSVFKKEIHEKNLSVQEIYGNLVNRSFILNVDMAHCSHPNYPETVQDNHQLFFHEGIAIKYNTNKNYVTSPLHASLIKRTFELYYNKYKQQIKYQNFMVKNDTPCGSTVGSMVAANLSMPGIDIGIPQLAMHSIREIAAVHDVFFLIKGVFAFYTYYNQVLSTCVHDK

Leucine aminopeptidase = molecular target: T2, Leucine aminopeptidase (Plasmodium falciparum 3D7, UniProt Q8IL11); assay: P. falciparum M17LAP inhibitors, primary screen, biochemical, fluorogenic H-Leu-NHMec substrate, 1536-well (AID 1619); format: functional
T2 sequence (Q8IL11 whole entry): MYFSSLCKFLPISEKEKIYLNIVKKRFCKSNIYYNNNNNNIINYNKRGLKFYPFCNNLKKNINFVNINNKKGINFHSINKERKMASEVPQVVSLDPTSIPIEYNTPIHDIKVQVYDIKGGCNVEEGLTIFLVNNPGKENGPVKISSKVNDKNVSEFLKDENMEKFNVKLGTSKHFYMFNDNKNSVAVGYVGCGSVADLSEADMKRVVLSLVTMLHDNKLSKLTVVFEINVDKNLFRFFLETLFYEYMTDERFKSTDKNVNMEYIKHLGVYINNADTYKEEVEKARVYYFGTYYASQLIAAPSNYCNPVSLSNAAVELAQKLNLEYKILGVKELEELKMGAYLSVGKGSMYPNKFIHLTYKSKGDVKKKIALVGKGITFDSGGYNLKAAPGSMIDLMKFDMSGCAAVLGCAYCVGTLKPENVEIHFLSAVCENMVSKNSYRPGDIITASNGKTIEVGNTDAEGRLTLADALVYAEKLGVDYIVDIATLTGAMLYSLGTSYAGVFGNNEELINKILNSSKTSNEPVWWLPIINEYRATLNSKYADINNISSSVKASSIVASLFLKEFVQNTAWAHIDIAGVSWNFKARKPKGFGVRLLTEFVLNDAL

fMet-Leu-Phe receptor = fMet-Leu-Phe receptor (Homo sapiens, UniProt P21462); assay: FPR ligands, dose response (AID 519); format: functional
[4] = molecular target: Voltage-gated inwardly rectifying potassium channel KCNH2 (Homo sapiens, UniProt Q12809); assay: hERG protection from proarrhythmic block, potency, dose response, cell-based, thallium flux (AID 2121); format: ADME
Transthyretin = Transthyretin (Homo sapiens, UniProt P02766); assay: Luminescence-based cell-based high throughput dose response assay to identify activators of Transthyretin (TTR) transcription.; format: functional
[5] = molecular target: Solute carrier family 12 member 2/member 5 (Homo sapiens, UniProt P55011+Q9H2X9); assay: KCC2 and NKCC1 inhibition by rubidium flux, cell-based, NKCC1 counter-screen (AID 1734); format: functional, HEK293
[6] = A549 cell cytotoxicity, dose response, cytotoxicity control, plate reader, dry powder, set 7 (AID 743318); format: functional, cell-based

Sequence of 5-hydroxytryptamine receptor 1A (P08908 whole entry): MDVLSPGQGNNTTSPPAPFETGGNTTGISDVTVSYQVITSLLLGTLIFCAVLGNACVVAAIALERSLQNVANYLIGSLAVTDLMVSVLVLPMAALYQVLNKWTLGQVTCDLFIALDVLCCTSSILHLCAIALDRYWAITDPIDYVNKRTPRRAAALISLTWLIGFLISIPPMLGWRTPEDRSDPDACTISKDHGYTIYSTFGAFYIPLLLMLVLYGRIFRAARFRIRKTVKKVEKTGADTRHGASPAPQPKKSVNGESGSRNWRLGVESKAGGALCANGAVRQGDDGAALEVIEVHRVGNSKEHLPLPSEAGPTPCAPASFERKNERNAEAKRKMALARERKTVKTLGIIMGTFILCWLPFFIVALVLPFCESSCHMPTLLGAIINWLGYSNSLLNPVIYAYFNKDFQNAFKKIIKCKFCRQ
Sequence of fMet-Leu-Phe receptor (P21462 whole entry): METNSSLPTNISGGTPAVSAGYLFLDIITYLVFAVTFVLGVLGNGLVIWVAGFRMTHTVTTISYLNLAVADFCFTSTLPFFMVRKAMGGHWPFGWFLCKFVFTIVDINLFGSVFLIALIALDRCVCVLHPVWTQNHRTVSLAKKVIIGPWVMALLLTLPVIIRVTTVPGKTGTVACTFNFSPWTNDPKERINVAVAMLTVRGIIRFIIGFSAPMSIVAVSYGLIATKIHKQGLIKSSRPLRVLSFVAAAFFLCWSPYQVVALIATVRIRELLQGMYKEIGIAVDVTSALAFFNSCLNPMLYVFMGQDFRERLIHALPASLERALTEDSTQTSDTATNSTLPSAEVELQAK
Sequence of Voltage-gated inwardly rectifying potassium channel KCNH2 (Q12809 whole entry): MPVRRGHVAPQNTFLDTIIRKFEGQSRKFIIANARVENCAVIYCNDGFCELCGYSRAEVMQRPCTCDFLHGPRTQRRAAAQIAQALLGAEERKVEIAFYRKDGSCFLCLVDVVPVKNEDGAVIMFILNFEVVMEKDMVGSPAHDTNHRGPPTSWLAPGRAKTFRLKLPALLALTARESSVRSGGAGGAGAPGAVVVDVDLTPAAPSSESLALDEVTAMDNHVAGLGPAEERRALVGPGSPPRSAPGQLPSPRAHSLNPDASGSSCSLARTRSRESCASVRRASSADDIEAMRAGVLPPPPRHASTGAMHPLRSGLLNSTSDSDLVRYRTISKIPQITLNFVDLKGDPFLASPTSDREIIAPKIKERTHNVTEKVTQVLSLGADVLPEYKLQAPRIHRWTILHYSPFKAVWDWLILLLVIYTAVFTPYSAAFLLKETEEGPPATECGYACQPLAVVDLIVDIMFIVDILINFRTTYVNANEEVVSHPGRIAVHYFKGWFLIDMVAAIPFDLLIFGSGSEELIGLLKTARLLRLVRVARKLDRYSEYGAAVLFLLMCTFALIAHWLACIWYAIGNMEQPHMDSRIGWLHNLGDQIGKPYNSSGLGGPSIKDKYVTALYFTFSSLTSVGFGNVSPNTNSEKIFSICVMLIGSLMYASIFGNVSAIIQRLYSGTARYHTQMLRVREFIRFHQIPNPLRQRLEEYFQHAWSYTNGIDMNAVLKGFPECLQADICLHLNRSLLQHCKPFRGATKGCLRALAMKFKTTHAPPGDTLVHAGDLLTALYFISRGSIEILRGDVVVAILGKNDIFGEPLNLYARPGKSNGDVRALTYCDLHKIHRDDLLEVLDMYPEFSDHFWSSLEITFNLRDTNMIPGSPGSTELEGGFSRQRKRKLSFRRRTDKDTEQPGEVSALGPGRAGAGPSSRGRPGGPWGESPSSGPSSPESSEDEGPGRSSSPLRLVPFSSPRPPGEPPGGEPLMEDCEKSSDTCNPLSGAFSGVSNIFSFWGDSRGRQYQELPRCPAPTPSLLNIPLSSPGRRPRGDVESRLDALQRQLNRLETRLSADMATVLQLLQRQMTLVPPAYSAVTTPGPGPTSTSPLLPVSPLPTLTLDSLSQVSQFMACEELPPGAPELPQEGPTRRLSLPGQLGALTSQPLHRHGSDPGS
Sequence of Procathepsin L (P07711 whole entry): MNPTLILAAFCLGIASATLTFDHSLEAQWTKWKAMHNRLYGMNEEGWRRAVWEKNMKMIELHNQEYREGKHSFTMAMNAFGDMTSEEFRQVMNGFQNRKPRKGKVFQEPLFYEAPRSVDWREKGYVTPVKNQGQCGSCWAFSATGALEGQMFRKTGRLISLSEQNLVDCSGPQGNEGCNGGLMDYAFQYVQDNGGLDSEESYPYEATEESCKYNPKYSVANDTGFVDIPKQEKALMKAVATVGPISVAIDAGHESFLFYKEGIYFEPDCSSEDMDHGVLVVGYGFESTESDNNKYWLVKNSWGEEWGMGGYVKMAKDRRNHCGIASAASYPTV
Sequence of NADPH oxidase 1 (Q9Y5S8 whole entry): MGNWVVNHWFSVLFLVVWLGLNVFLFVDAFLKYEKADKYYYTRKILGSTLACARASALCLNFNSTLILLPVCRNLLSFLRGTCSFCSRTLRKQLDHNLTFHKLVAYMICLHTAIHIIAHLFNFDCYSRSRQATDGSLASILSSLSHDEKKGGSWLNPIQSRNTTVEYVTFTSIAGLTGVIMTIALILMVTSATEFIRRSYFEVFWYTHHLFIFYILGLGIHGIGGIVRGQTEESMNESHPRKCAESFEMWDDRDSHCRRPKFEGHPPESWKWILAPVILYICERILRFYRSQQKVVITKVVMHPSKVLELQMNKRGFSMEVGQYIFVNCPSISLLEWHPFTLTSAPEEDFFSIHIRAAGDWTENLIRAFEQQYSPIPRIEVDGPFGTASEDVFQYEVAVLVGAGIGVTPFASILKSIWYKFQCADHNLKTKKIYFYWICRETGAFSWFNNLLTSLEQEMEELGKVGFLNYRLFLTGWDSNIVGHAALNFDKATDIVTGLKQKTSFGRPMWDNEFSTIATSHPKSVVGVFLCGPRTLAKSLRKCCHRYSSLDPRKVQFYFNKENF

## CC(=NNc1ccc(C(=O)O)cc1)c1ccc2c(c1)Nc1ccccc1S2
NADPH oxidase 1
  IC50: 0.561 µM (active)

## CCOC(=O)C1=C(C)NC(=O)NC1c1ccc(OCC(=O)Nc2ccccc2)c(OC)c1 (configuration not stated)
[1]
  EC50: > 50 µM (not active)

## O=C(Nc1ccc2c(c1)OCO2)N1C[C@@H]2N[C@H](C1)[C@@H]2c1ccc(C=Cc2ccccc2)cc1
[2]
  AC50: 11.2 µM (active)
[3]
  AC50: 5.46 µM (active)

## CCOC(=O)c1c(NC(=O)C2C3CCC(O3)C2C(=O)O)sc(C)c1-c1ccc(C)cc1 (configuration not stated)
Procathepsin L
  IC50: > 59.6 µM (not active)
Aspartyl aminopeptidase
  IC50: > 73.5 µM (not active)
Leucine aminopeptidase
  IC50: 6.69 µM (active)
fMet-Leu-Phe receptor
  Ki: 63.3 µM (inactive)

## O=C(NC(=S)NCCc1ccccc1)c1cccc(Cl)c1
[4]
  EC50: 3.5 µM (active)

## Cc1cc(C)n(CC(=O)n2c(C)c(C)c3ccccc32)n1
Transthyretin
  EC50: > 167 µM (inactive)

## O=C(CN1C(=O)NC2(CCCC2)C1=O)Nc1nc(-c2ccc(F)cc2)cs1
[5]
  IC50: 2.9 µM (active)

## Cc1cccc(OCCn2c(=S)[nH]c3cc(C(F)(F)F)ccc32)c1
[6]
  AC50: 36 µM (active)
